Here are results for 30 compounds from patent US10851083B2, “Benzoimidazoles as prolyl hydroxylase inhibitors” (Janssen Pharmaceutica NV, priority 2008, dated 2020).

One experiment addresses human PHD2181-417 (Homo sapiens (Human), UniProt Q9GZT9). The experiment is described as follows: PHD2 enzyme activity assay ([14C]-succinic acid production).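 Further: reaction ran 10 min with compound in Tris pH 7.5 buffer with catalase, DTT and ascorbate, labelled succinate freed of leftover 2-oxoglutarate by DNP precipitation, then beta counted.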 It counts as biochemical. Particulars: PHD2181-417 polypeptide, HIF-1α peptide 10 μM, [5-14C]-2-oxoglutaric acid; 30 min pre-incubation; tested 10 μM to 3 nM.
Another experiment deals with Hep-3B cells. Briefly: Cellular assay: EPO secretion in Hep-3B cells. Type of experiment: cell-based, human. The arrangement: EPO secretion, % of control compound: dose or concentration left out as unconfirmed. As to conditions: Homo sapiens, Hep3B, 24 h, EPO secretion as percentage of control compound 7-[(4-Chloro-phenyl)-(5-methyl-isoxazol-3-ylamino)-methyl]-quinolin-8-ol, read-out: Cellular % EPO Stimulation.

human PHD2181-417, sequence (Q9GZT9 181-417): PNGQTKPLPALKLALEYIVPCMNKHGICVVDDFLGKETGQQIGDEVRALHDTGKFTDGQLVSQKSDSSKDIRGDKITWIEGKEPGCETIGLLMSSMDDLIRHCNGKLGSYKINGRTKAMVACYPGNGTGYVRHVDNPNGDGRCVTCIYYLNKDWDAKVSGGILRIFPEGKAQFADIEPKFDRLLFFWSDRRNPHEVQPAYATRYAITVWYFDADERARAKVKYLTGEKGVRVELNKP

On to `O=C(O)c1cnn(-c2nc3ccc4scnc4c3[nH]2)c1` [Example 125, 1-(8H-Imidazo[4′,5′:3,4]benzo[2,1-d]thiazol-7-yl)-1H-pyrazole-4-carboxylic Acid], for which the “Enzyme pIC50” value on human PHD2181-417 worked out at 6. In the experiment with Hep-3B cells, the EPO secretion, % of control compound worked out at 46.8%.

Consider `O=C(O)c1cnn(-c2nc3cc(C(F)(F)F)c(C(F)(F)F)cc3[nH]2)c1` [Example 126, 1-(5,6-Bis-trifluoromethyl-1H-benzoimidazol-2-yl)-1H-pyrazole-4-carboxylic Acid], for which the “Enzyme pIC50” value at human PHD2181-417 turned out to be 7.4. Also, the EPO secretion, % of control compound in the experiment on Hep-3B cells turned out to be 82.7%.

Consider `O=C(O)c1cnn(-c2nc3c(Cl)c(Cl)c(Cl)cc3[nH]2)c1` [Example 127, 1-(4,5,6-Trichloro-1H-benzoimidazol-2-yl)-1H-pyrazole-4-carboxylic Acid], for which the “Enzyme pIC50” value at human PHD2181-417 is 6.9. Also, in the experiment on Hep-3B cells, the EPO secretion, % of control compound came out at 70.6%.

Take `O=C(O)c1cnn(-c2nc3c(Br)c(Cl)c(Cl)cc3[nH]2)c1` [Example 128, 1-(4-Bromo-5,6-dichloro-1H-benzoimidazol-2-yl)-1H-pyrazole-4-carboxylic Acid]: at human PHD2181-417, the “Enzyme pIC50” value amounted to 7.1. The EPO secretion, % of control compound in the experiment with Hep-3B cells stood at 24.1%.

As for `CCNc1cc2nc(-n3cc(C(=O)O)cn3)[nH]c2cc1Cl` [Example 130, 1-(6-Chloro-5-ethylamino-1H-benzoimidazol-2-yl)-1H-pyrazole-4-carboxylic Acid], at human PHD2181-417, the “Enzyme pIC50” value turned out to be 6.2. Moreover, the EPO secretion, % of control compound in the experiment with Hep-3B cells amounted to 48%.

Regarding `CCCNc1cc2nc(-n3cc(C(=O)O)cn3)[nH]c2cc1Cl` [Example 131, 1-(6-Chloro-5-propylamino-1H-benzoimidazol-2-yl)-1H-pyrazole-4-carboxylic Acid], on human PHD2181-417, the “Enzyme pIC50” value worked out at 6.5. In the experiment on Hep-3B cells, the EPO secretion, % of control compound was 89%.

`O=C(O)c1cnn(-c2nc3cc(NCc4ccccc4)c(Cl)cc3[nH]2)c1` [Example 132, 1-(5-Benzylamino-6-chloro-1H-benzoimidazol-2-yl)-1H-pyrazole-4-carboxylic Acid]: on human PHD2181-417, the “Enzyme pIC50” value worked out at 6.2. For the same compound, the EPO secretion, % of control compound in the experiment with Hep-3B cells was determined as 52.6%.

As for `O=C(O)c1cnn(-c2nc3cc(Nc4ccccc4)c(Cl)cc3[nH]2)c1` [Example 133, 1-(6-Chloro-5-phenylamino-1H-benzoimidazol-2-yl)-1H-pyrazole-4-carboxylic Acid], at human PHD2181-417, the “Enzyme pIC50” value is recorded as 6.9. Besides, the EPO secretion, % of control compound in the experiment on Hep-3B cells turned out to be 77%.

As to `O=C(O)c1cnn(-c2nc3cc(NCCN4CCOCC4)c(Cl)cc3[nH]2)c1` [Example 134, 1-[6-Chloro-5-(2-morpholin-4-yl-ethylamino)-1H-benzoimidazol-2-yl]-1H-pyrazole-4-carboxylic Acid], the “Enzyme pIC50” value at human PHD2181-417 stood at 6.3. Further, the EPO secretion, % of control compound in the experiment with Hep-3B cells is 56.5%.

Regarding `O=C(O)c1cnn(-c2nc3cc(NS(=O)(=O)C4CC4)c(Cl)cc3[nH]2)c1` [Example 135, 1-(6-Chloro-5-cyclopropanesulfonylamino-1H-benzoimidazol-2-yl)-1H-pyrazole-4-carboxylic Acid], on human PHD2181-417, the “Enzyme pIC50” value came out at 6.8. For the same compound, the EPO secretion, % of control compound with Hep-3B cells came out at 17%.

For `CS(=O)(=O)Nc1cc2nc(-n3cc(C(=O)O)cn3)[nH]c2cc1Cl` [Example 136, 1-(6-Chloro-5-methanesulfonylamino-1H-benzoimidazol-2-yl)-1H-pyrazole-4-carboxylic Acid], the “Enzyme pIC50” value on human PHD2181-417 is on record as 6.8. In the experiment with Hep-3B cells, the EPO secretion, % of control compound turned out to be 9%.

In the case of `CCS(=O)(=O)Nc1cc2nc(-n3cc(C(=O)O)cn3)[nH]c2cc1Cl` [Example 137, 1-(6-Chloro-5-ethanesulfonylamino-1H-benzoimidazol-2-yl)-1H-pyrazole-4-carboxylic Acid], the “Enzyme pIC50” value at human PHD2181-417 amounted to 6.6. In the experiment with Hep-3B cells, the EPO secretion, % of control compound is 11%.

Regarding `O=C(O)c1cnn(-c2nc3cc(NS(=O)(=O)c4ccccc4)c(Cl)cc3[nH]2)c1` [Example 138, 1-(5-Benzenesulfonylamino-6-chloro-1H-benzoimidazol-2-yl)-1H-pyrazole-4-carboxylic Acid], the “Enzyme pIC50” value at human PHD2181-417 is 6.8. In the experiment with Hep-3B cells, the EPO secretion, % of control compound came to 19%.

On to `CC(=O)Nc1cc2nc(-n3cc(C(=O)O)cn3)[nH]c2cc1Cl` [Example 139, 1-(5-Acetylamino-6-chloro-1H-benzoimidazol-2-yl)-1H-pyrazole-4-carboxylic Acid], for which the “Enzyme pIC50” value on human PHD2181-417 worked out at 6.3. Moreover, the EPO secretion, % of control compound with Hep-3B cells was found to be 24%.

On to `CCC(=O)Nc1cc2nc(-n3cc(C(=O)O)cn3)[nH]c2cc1Cl` [Example 140, 1-(6-Chloro-5-propionylamino-1H-benzoimidazol-2-yl)-1H-pyrazole-4-carboxylic Acid], for which the “Enzyme pIC50” value on human PHD2181-417 came to 6.4. Further, the EPO secretion, % of control compound in the experiment with Hep-3B cells amounted to 10%.

Turning to `O=C(O)c1cnn(-c2nc3cc(NC(=O)c4ccccc4)c(Cl)cc3[nH]2)c1` [Example 141, 1-(5-Benzoylamino-6-chloro-1H-benzoimidazol-2-yl)-1H-pyrazole-4-carboxylic Acid], the “Enzyme pIC50” value at human PHD2181-417 is recorded as 6.6. Besides, in the experiment on Hep-3B cells, the EPO secretion, % of control compound is 33%.

`O=C(CN1CCOCC1)Nc1cc2nc(-n3cc(C(=O)O)cn3)[nH]c2cc1Cl` [Example 142, 1-[6-Chloro-5-(2-morpholin-4-yl-acetylamino)-1H-benzoimidazol-2-yl]-1H-pyrazole-4-carboxylic Acid]: the “Enzyme pIC50” value on human PHD2181-417 is 6.4. The EPO secretion, % of control compound in the experiment on Hep-3B cells worked out at 17%.

For the compound `O=C(CN1CCCCC1)Nc1cc2nc(-n3cc(C(=O)O)cn3)[nH]c2cc1Cl` [Example 143, 1-[6-Chloro-5-(2-piperidin-1-yl-acetylamino)-1H-benzoimidazol-2-yl]-1H-pyrazole-4-carboxylic Acid], the “Enzyme pIC50” value on human PHD2181-417 worked out at 6.2. Moreover, the EPO secretion, % of control compound in the experiment on Hep-3B cells turned out to be 20%.

Take `CN1CCN(CC(=O)Nc2cc3nc(-n4cc(C(=O)O)cn4)[nH]c3cc2Cl)CC1` [Example 144, 1-{6-Chloro-5-[2-(4-methyl-piperazin-1-yl)-acetylamino]-1H-benzoimidazol-2-yl}-1H-pyrazole-4-carboxylic Acid]: the “Enzyme pIC50” value on human PHD2181-417 came to 6.4. Also, in the experiment on Hep-3B cells, the EPO secretion, % of control compound came out at 16%.

Turning to `COc1ccc(Oc2cc3nc(-n4cc(C(=O)O)cn4)[nH]c3cc2Cl)cc1` [Example 145, 1-[6-Chloro-5-(4-methoxy-phenoxy)-1H-benzoimidazol-2-yl]-1H-pyrazole-4-carboxylic Acid], at human PHD2181-417, the “Enzyme pIC50” value came out at 7.1. Further, the EPO secretion, % of control compound with Hep-3B cells was 13.9%.

For `O=C(O)c1cnn(-c2nc3cc(Oc4ccc(Cl)cc4F)c(Cl)cc3[nH]2)c1` [Example 146, 1-[6-Chloro-5-(4-chloro-2-fluoro-phenoxy)-1H-benzoimidazol-2-yl]-1H-pyrazole-4-carboxylic Acid], the “Enzyme pIC50” value on human PHD2181-417 was 7.2. The EPO secretion, % of control compound in the experiment on Hep-3B cells worked out at 49.9%.

As for `O=C(O)c1cnn(-c2nc3cc(Oc4ccc(OC(F)(F)F)cc4)c(Cl)cc3[nH]2)c1` [Example 147, 1-[6-Chloro-5-(4-trifluoromethoxy-phenoxy)-1H-benzoimidazol-2-yl]-1H-pyrazole-4-carboxylic Acid], the “Enzyme pIC50” value at human PHD2181-417 was found to be 7.4. Further, the EPO secretion, % of control compound with Hep-3B cells was 45.9%.

As for `O=C(O)c1cnn(-c2nc3cc(Oc4ccc(F)c(Cl)c4)c(Cl)cc3[nH]2)c1` [Example 148, 1-[6-Chloro-5-(3-chloro-4-fluoro-phenoxy)-1H-benzoimidazol-2-yl]-1H-pyrazole-4-carboxylic Acid], at human PHD2181-417, the “Enzyme pIC50” value is 7.1. In addition, the EPO secretion, % of control compound in the experiment with Hep-3B cells was 38.1%.

On to `CCSc1cc2nc(-n3cc(C(=O)O)cn3)[nH]c2cc1C(F)(F)F` [Example 149, 1-(5-Ethylsulfanyl-6-trifluoromethyl-1H-benzoimidazol-2-yl)-1H-pyrazole-4-carboxylic Acid], for which the “Enzyme pIC50” value on human PHD2181-417 was determined as 7.3. For the same compound, the EPO secretion, % of control compound in the experiment with Hep-3B cells amounted to 57.8%.

Regarding `CCSc1cc2nc(-n3cc(C(=O)O)cn3)[nH]c2cc1OC(F)(F)F` [Example 150, 1-(5-Ethylsulfanyl-6-trifluoromethoxy-1H-benzoimidazol-2-yl)-1H-pyrazole-4-carboxylic Acid], the “Enzyme pIC50” value at human PHD2181-417 stood at 7.2. Moreover, in the experiment with Hep-3B cells, the EPO secretion, % of control compound was 47.2%.

As for `CCSc1cc2nc(-n3cc(C(=O)O)cn3)[nH]c2cc1F` [Example 151, 1-(5-Ethylsulfanyl-6-fluoro-1H-benzoimidazol-2-yl)-1H-pyrazole-4-carboxylic Acid], the “Enzyme pIC50” value at human PHD2181-417 turned out to be 6.9. The EPO secretion, % of control compound with Hep-3B cells is 107%.

Take `CCS(=O)(=O)c1cc2nc(-n3cc(C(=O)O)cn3)[nH]c2cc1C(F)(F)F` [Example 154, 1-(5-Ethylsulfonyl-6-trifluoromethyl-1H-benzoimidazol-2-yl)-1H-pyrazole-4-carboxylic Acid]: the “Enzyme pIC50” value on human PHD2181-417 was 7.6. Moreover, the EPO secretion, % of control compound in the experiment with Hep-3B cells came out at 53.8%.

For the compound `CCS(=O)(=O)c1cc2nc(-n3cc(C(=O)O)cn3)[nH]c2cc1OC(F)(F)F` [Example 155, 1-(5-Ethylsulfonyl-6-trifluoromethoxy-1H-benzoimidazol-2-yl)-1H-pyrazole-4-carboxylic Acid], the “Enzyme pIC50” value on human PHD2181-417 was 7.6. Besides, in the experiment on Hep-3B cells, the EPO secretion, % of control compound stood at 47.2%.

For `CCS(=O)(=O)c1cc2nc(-n3cc(C(=O)O)cn3)[nH]c2cc1F` [Example 156, 1-(5-Ethylsulfonyl-6-fluoro-1H-benzoimidazol-2-yl)-1H-pyrazole-4-carboxylic Acid], at human PHD2181-417, the “Enzyme pIC50” value was found to be 7.4. In addition, the EPO secretion, % of control compound in the experiment on Hep-3B cells was determined as 51.9%.

`O=C(O)c1cnn(-c2nc3cc(Sc4ccccc4)c(C(F)(F)F)cc3[nH]2)c1` [Example 159, 1-(5-Phenylsulfanyl-6-trifluoromethyl-1H-benzoimidazol-2-yl)-1H-pyrazole-4-carboxylic Acid]: on human PHD2181-417, the “Enzyme pIC50” value amounted to 7.4. In addition, the EPO secretion, % of control compound with Hep-3B cells is 11%.
